Assays:
[1] = DRUGMATRIX: Calcium Channel Type L, Benzothiazepine radioligand binding (ligand: [3H] Diltiazem); type: cell membranes, Rattus norvegicus, Wistar, Brain, Membrane; conditions: Not Active = under 50% inhibition at 10 µM
[2] = molecular target: 5-hydroxytryptamine receptor 6 (Homo sapiens, UniProt P50406); type: cell membranes, HeLa, Membrane; conditions: hela; note: in other assays of this panel Not Active means under 50% inhibition at 10 µM
[3] = molecular target: Sigma non-opioid intracellular receptor 1 (Homo sapiens, UniProt Q99720); test: DRUGMATRIX: Sigma1 radioligand binding (ligand: [3H] Haloperidol); type: cell membranes, Jurkat, Membrane; conditions: Not Active = under 50% inhibition at 10 µM
Sigma non-opioid intracellular receptor 1, sequence (Q99720 whole entry): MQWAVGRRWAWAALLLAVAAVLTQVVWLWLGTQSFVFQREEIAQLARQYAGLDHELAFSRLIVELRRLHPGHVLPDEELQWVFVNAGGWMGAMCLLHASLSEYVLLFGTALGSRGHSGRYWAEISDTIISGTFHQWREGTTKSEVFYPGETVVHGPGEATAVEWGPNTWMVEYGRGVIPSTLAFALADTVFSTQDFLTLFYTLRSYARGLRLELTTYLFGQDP

[4] = DRUGMATRIX: Sigma2 radioligand binding (ligand: [3H] Ifenprodil); type: cell membranes, Rattus norvegicus, Wistar, Brain, Membrane; conditions: Not Active = under 50% inhibition at 10 µM
[5] = molecular target: T1, Substance-K receptor (Homo sapiens, UniProt P21452); type: cell membranes, CHO, Membrane; note: in other assays of this panel Not Active means under 50% inhibition at 10 µM
T1 sequence (P21452 whole entry): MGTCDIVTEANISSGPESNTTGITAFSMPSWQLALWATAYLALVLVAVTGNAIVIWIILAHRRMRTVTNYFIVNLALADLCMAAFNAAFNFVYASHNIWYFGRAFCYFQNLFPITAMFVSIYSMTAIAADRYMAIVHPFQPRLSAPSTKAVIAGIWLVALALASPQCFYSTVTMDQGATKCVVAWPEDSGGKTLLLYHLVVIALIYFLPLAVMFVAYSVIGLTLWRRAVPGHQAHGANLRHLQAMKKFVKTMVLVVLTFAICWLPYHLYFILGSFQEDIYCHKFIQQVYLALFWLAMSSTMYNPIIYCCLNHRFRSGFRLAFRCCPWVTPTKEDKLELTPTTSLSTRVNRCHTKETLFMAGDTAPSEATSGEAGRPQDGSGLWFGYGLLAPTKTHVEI

[6] = DRUGMATRIX: Calcium Channel Type L, Phenylalkylamine radioligand binding (ligand: [3H] (-)-Desmethoxyverapamil (D-888)); type: cell membranes, Rattus norvegicus, Wistar, Brain, Membrane; conditions: Not Active = under 50% inhibition at 10 µM
[7] = DRUGMATRIX: Glutamate, NMDA, Phencyclidine radioligand binding (ligand: [3H] TCP); type: cell membranes, Rattus norvegicus, Wistar, Cerebral cortex, Membrane; conditions: Not Active = under 50% inhibition at 10 µM
[8] = molecular target: Glycine receptor (Rattus norvegicus, UniProt P22771+P24524+P07727+P20781); type: cell membranes, Wistar, Spinal cord, Membrane; note: in other assays of this panel Not Active means under 50% inhibition at 10 µM
[9] = molecular target: T2, Polyunsaturated fatty acid lipoxygenase ALOX15 (Oryctolagus cuniculus, UniProt P12530); test: biochemical; type: tissue-based, Reticulocytes; conditions: reticulocytes;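 note: inhibition of 15-lipoxygenase enzyme activity measured with linoleic acid as the substrate; in other assays of this panel Not Active means under 50% inhibition at 10 µM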
T2 sequence (P12530 whole entry): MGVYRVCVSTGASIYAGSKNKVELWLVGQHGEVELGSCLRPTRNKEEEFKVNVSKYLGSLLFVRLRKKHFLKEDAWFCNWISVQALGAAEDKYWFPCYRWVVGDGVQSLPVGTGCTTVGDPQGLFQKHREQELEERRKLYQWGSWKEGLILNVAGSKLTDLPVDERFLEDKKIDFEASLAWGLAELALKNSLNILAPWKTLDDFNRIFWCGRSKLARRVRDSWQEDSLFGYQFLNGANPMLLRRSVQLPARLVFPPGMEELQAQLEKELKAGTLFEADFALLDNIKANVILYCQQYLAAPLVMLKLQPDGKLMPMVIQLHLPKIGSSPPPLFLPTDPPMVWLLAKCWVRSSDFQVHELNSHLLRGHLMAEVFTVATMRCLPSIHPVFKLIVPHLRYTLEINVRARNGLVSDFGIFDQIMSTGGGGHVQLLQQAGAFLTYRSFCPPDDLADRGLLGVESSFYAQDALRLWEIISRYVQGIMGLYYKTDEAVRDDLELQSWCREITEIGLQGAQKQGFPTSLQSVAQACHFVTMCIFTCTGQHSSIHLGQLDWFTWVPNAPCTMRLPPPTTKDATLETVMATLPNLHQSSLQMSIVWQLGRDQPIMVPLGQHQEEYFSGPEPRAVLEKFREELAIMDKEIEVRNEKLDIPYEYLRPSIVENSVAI

[10] = DRUGMATRIX: Phosphodiesterase PDE3 enzyme inhibition (substrate: [3H]cAMP + cAMP); type: tissue-based, Homo sapiens; conditions: platelet; Not Active = under 50% inhibition at 10 µM
[11] = DRUGMATRIX: Phosphodiesterase PDE4 enzyme inhibition (substrate: [3H]cAMP + cAMP); conditions: u-937; Not Active = under 50% inhibition at 10 µM
[12] = molecular target: Tyrosine-protein kinase Lck (Homo sapiens, UniProt P06239); test: DRUGMATRIX: Protein Tyrosine Kinase, LCK enzyme inhibition (substrate: Poly(Glu:Tyr)); type: cell-based, Insect cells; conditions: insect cells; Not Active = under 50% inhibition at 10 µM
Tyrosine-protein kinase Lck, sequence (P06239 whole entry): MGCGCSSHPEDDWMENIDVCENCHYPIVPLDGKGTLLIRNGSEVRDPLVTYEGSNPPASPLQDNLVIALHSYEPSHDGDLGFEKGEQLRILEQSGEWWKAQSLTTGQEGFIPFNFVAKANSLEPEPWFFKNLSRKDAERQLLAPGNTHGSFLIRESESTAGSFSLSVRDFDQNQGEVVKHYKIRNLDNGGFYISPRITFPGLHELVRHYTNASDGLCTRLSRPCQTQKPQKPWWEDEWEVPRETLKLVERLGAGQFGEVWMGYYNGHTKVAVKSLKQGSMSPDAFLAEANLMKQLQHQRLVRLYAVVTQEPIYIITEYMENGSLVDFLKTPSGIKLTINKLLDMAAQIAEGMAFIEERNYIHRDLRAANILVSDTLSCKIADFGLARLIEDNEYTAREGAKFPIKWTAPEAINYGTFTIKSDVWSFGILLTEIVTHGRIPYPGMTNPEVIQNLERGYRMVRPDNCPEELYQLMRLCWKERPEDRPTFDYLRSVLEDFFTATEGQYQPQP

[13] = DRUGMATRIX: Purinergic P2X radioligand binding (ligand: [3H] alpha, beta-Methylene-ATP); type: cell membranes, Oryctolagus cuniculus, New Zealand albino, Urinary bladder, Membrane; conditions: Not Active = under 50% inhibition at 10 µM
[14] = molecular target: T3, 5-hydroxytryptamine receptor 1A (Rattus norvegicus, UniProt P19327); type: cell membranes, CHO-K1, Membrane; note: in other assays of this panel Not Active means under 50% inhibition at 10 µM
T3 sequence (P19327 whole entry): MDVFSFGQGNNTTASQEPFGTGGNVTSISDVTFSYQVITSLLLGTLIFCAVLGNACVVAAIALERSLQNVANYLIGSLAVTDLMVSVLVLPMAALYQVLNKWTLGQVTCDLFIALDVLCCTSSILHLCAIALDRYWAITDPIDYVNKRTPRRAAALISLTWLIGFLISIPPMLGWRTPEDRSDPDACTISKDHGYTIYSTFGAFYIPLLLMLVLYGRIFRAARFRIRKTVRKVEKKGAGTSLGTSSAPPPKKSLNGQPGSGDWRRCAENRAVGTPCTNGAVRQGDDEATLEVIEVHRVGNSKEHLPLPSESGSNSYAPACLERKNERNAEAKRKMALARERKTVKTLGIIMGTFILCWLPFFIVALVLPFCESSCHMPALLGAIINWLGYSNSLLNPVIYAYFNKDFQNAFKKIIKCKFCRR

5-hydroxytryptamine receptor 6, sequence (P50406 whole entry): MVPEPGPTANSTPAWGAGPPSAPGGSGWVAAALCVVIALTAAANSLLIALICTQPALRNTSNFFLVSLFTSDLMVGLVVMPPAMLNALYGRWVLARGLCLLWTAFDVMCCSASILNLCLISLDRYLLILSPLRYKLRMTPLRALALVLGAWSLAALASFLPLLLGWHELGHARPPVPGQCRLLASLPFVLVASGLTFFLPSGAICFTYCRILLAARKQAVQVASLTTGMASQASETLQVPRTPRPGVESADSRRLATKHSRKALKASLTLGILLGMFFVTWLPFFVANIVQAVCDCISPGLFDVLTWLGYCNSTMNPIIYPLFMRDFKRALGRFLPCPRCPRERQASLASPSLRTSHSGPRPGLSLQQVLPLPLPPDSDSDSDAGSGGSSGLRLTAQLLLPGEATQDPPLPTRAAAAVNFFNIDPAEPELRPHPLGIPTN

| SMILES | IC50 [1] | Ki [1] | IC50 [2] | IC50 ([3]; jurkat) | IC50 [4] | Ki [4] | IC50 ([5]; cho) | IC50 [6] | Ki [6] | IC50 [7] | Ki [7] | IC50 [8] | IC50 [9] | IC50 [10] | Ki [10] | IC50 [11] | Ki [11] | IC50 [12] | IC50 [13] | Ki [13] | further results |
| --- | --- | --- | --- | --- | --- | --- | --- | --- | --- | --- | --- | --- | --- | --- | --- | --- | --- | --- | --- | --- | --- |
| Nc1ccc(S(=O)(=O)Nc2ccnn2-c2ccccc2)cc1 [SULFAPHENAZOLE] | Not Active | Not Active | Not Active | Not Active | Not Active | Not Active | Not Active | Not Active | Not Active | Not Active | Not Active | Not Active | Not Active | Not Active | Not Active | Not Active | Not Active | Not Active | Not Active | Not Active | IC50 ([14]; cho-k1): Not Active |
| CC(CCc1ccccc1)NCC(O)c1ccc(O)c(C(N)=O)c1 (configuration not stated) [LABETALOL] | Not Active | Not Active | Not Active | – | – | – | Not Active | Not Active | Not Active | Not Active | Not Active | Not Active | Not Active | Not Active | Not Active | Not Active | Not Active | Not Active | Not Active | Not Active | IC50 ([3]; read-out: IC50): 1810 nM; Ki ([3]; read-out: Ki): 763 nM; IC50 ([4]; read-out: IC50): 2820 nM; Ki ([4]; read-out: Ki): 1730 nM; IC50 ([14]; read-out: IC50): 393 nM; Ki ([14]; read-out: Ki): 225 nM |
| CC(C)(C)NC(=O)[C@@H]1CN(Cc2cccnc2)CCN1C[C@@H](O)C[C@@H](Cc1ccccc1)C(=O)N[C@H]1c2ccccc2C[C@H]1O.O | Not Active | Not Active | Not Active | Not Active | Not Active | Not Active | – | Not Active | Not Active | Not Active | Not Active | Not Active | Not Active | Not Active | Not Active | Not Active | Not Active | Not Active | Not Active | Not Active | IC50 ([5]; read-out: IC50): 5100 nM; Ki ([5]; read-out: Ki): 1700 nM; IC50 ([14]; cho-k1): Not Active |
| COc1c(C)c2c(c(O)c1C/C=C(\C)CCC(=O)OCCN1CCOCC1)C(=O)OC2 [MYCOPHENOLATE MOFETIL] | Not Active | Not Active | Not Active | Not Active | Not Active | Not Active | Not Active | Not Active | Not Active | Not Active | Not Active | Not Active | Not Active | Not Active | Not Active | Not Active | Not Active | Not Active | Not Active | Not Active | IC50 ([14]; cho-k1): Not Active |
